Here are results for 3 compounds from US4252970A, “6-Deoxyneamines” (The Upjohn Company, priority 1979, dated 1981).

What all share (type): cell-based
Assay [1] deals with S. pyogenes UC 152. Kind of assay: standard microplate test in BHI Agar (MIC). To be noted: Streptococcus pyogenes, UC152, 37°, 20 hours, read-out: Minimum Inhibitory Concentration. Here is the method:
(§1) The compounds VII, XI, XVβ, XVα and XVI were tested in a standard microplate test in BHI (Brain Heart Infusion) Agar at a concentration of 1 mg./ml. and dilutions thereof at 37° incubation temperature. The end points are read at 20 hours. BHI Agar is supplied by Difco Laboratories, Detroit, Michigan, U.S.A. and has the following compositions: […]

Assay [2] deals with K. pneumoniae UC 58. Kind of assay: standard microplate test in BHI Agar (MIC). To be noted: Klebsiella pneumoniae, UC58, 37°, 20 hours, read-out: Minimum Inhibitory Concentration. Here is the method: as §1
Assay [3] deals with S. marcescens UC 131. Kind of assay: standard microplate test in BHI Agar (MIC). To be noted: Serratia marcescens, UC131, 37°, 20 hours, read-out: Minimum Inhibitory Concentration. Here is the method: as §1
Assay [4] has as its system S. faecalis UC 694. Kind of assay: standard microplate test in BHI Agar (MIC). To be noted: Enterococcus faecalis, UC694, 37°, 20 hours, read-out: Minimum Inhibitory Concentration. Here is the method:
as §1

The subject of assay [5] is Ps. aeruginosa UC 95. Kind of assay: standard microplate test in BHI Agar (MIC). To be noted: Pseudomonas aeruginosa, UC95, 37°, 20 hours, read-out: Minimum Inhibitory Concentration. Here is the method: as §1
Assay [6] deals with P. rettgeri UC 339. The assay is described as follows: standard microplate test in BHI Agar (MIC). As to conditions: Providencia rettgeri, UC339, 37°, 20 hours, read-out: Minimum Inhibitory Concentration. Here is the method:
as §1

In assay [7] the test system is S. aureus UC 76. The assay is described as follows: standard microplate test in BHI Agar (MIC). As to conditions: Staphylococcus aureus, UC76, 37°, 20 hours, read-out: Minimum Inhibitory Concentration. Here is the method:
as §1

Assay [8] has as its system E. coli UC 51. The assay is described as follows: standard disc plate assay, zones of inhibition (12.5 mm paper discs). The text has this:
(§2) The compounds of formulas (V, VII, IX, XI, XIV, XVI, and XIX) are active as antibacterials and can be used in various environments to erradicate or control susceptible microorganisms. Tables I and II set forth the in vitro antibacterial test results for representative compounds of the present invention. The results were obtained with a standard disc plate assay using 12.5 mm paper discs.

The test system of assay [9] is S. aureus UC 80. Described as above.
Excerpt: as §2

Assay [10] has as its system B. cereus UC 3145. The description is as above. To be noted: 1 mg/ml.
Excerpt: as §2

Assay [11] relates to S. schottmuelleri UC 126. The assay is described as above.
Excerpt: as §2

Assay [12] deals with K. pneumoniae UC 57. The description is as above.
Excerpt: as §2

For assay [13], the system named is Ps. aeruginosa UC 95. The description is as above. To be noted: 1 mg/ml.
Excerpt: as §2

Assay [14] concerns P. vulgaris UC 93. Described as above.
Excerpt: as §2

Assay [15] relates to B. subtilis UC 564. The assay is described as above.
Excerpt: as §2

In brackets after ≈: the same amount, converted by molar mass.

For `NC[C@H]1O[C@H](O[C@H]2[C@H](O)C[C@H](N)C[C@@H]2N)[C@H](N)[C@@H](O)[C@@H]1O` [6-deoxyneamine (XI), 6-Deoxyneamine], the MIC was 15.6 µg/mL (≈ 50.9 µM) in assay [1]; 7.8 µg/mL (≈ 25.5 µM) in assay [2]; 250 µg/mL (≈ 816 µM) in assay [3]; greater than 500 µg/mL in assay [4]; greater than 500 µg/mL in assay [5]; 250 µg/mL (≈ 816 µM) in [6].
For the compound `C[C@@]1(O)C[C@H](N)C[C@H](N)[C@H]1O[C@H]1O[C@H](CN)[C@@H](O)[C@H](O)[C@H]1N` [6-Deoxy-5-methyl-neamine], the MIC in assay [7] is 15.6 µg/mL (≈ 48.7 µM); in [5], greater than 500 µg/mL; in assay [6] it was greater than 500 µg/mL.
As for `NC[C@H]1O[C@H](O[C@H]2[C@H](O)[C@@H](O)[C@H](N)C[C@@H]2N)[C@H](N)[C@@H](O)[C@@H]1O` [Neamine], the “Zones of Inhibition” value was 18 mm in [8] (0.1 mg/ml); 25 mm in assay [8] (1 mg/ml); 18 mm in [9] (0.1 mg/ml); 26 mm in assay [9] (1 mg/ml); 23 mm in [10]; 15 mm in assay [11] (0.1 mg/ml). The “Zones of Inhibition” value was found to be 23 mm in assay [11] (1 mg/ml); 26 mm in [12] (0.1 mg/ml); 32 mm in assay [12] (1 mg/ml); 18 mm in assay [13]; 15 mm in assay [14] (0.1 mg/ml); 28 mm in assay [14] (1 mg/ml). Moreover, the “Zones of Inhibition” value in assay [15] (0.1 mg/ml) turned out to be 28 mm; in [15] (1 mg/ml) it was 37 mm.
